Measured values from US4568689A, “Pharmaceutical preparation for the treatment of hypertensive disease and myocardial infarction” (priority 1983, dated 1986).
Entries after “also recorded” stand apart in the source; their conditions may differ.

Tests used:
[1] = system: experimental necrosis of myocardium caused by introduction of adrenaline; test: histological analysis of experimental necrosis of myocardium caused by adrenaline; assay type: in vivo, rats of the Wistar line; conditions: for changes in cardiomyocytes / changes in interstitial tissue / changes in vessels: 25 mg/kg
Protocol: A comparative study of the effects produced by the preparation according to the present invention and finoptin on an experimental necrosis of myocardium caused by introduction of adrenaline.
The experiments were carried out on rats of the Wistar line of gregarious keeping, both sexes, with a mass of 170 to 225 g. Each preparation was studied on a separate group of animals: (group of adrenaline-control, group of finoptin, group of the preparation according to the present invention). 72 rats were used in the experiments altogether. Injuries of myocardium were caused by way of a single-time subcutaneous administration of a 0.1% solution of adrenaline hydrochloride in the dose of 3 mg per kg of the rat's bodyweight. […] The preparation of this invention was administered subcutaneously, finoptin-per os. On the first day of the experiment the preparations were administered 30 minutes after injection of adrenaline hydrochloride. The experiment lasted for 19 days. Slaughters were effected on the 4th, 8th, 12th and 19th day of the experiment. The animals were decapitated. The heart was fixed in a 10% solution of neutral formalin and sealed in paraffin. Serial sections with the thickness of 5-6μ were coloured by Ehrlich hematoxylin-eosin. The state of vessels of myocardium, cardiomyocytes and interstitial tissue were evaluated by histological analysis.

[2] = system: neoepinephrine model of infarction (focal necrosis) of myocardium in rats; test: survival of rats with the neoepinephrine model of infarction; assay type: in vivo, rats of the Wistar line; conditions: 25 mg/kg subcutaneously, 7 days; for Percentage of survival: after 19 days; for Number of survived animals after 19 days: groups initially 12 animals
Protocol: The study of the effect produced by the preparation according to the present invention on survival of animals with a neoepinephrine model of infarction was effected in comparison with the prior art preparations--obzidan and finoptin.
The formation of a neoepinephrine model of infarction (focal necrosis) of myocardium in rats was effected by way of an every-day subcutaneous administration of a 0.1% solution of neoepinephrine in the dose of 3 mg/kg for 7 days to rats of the Wistar line with a mass of 160-200 g. The test preparations were subcutaneously administered to the rats in the form of a 1.25% aqueous solution in the dose of 25 mg/kg 0.5 hour after injection of neoepinephrine also for 7 days.

[3] = system: arterial pressure of spontaneously hypertensive rats; test: effect of the oral form on arterial pressure, spontaneously hypertensive rats; assay type: in vivo; conditions: 10 mg/kg
[4] = system: arterial pressure of rats with spontaneous hypertension; test: hypotensive effect, intraperitoneal, spontaneously hypertensive rats; assay type: in vivo
Protocol: The study of the hypotensive effect was carried out in experiments on spontaneously hypertensive male rats of the Akamoto-Aoki line aged 20-25 weeks. The prior art preparation-nifedipine was used for the purpose of comparison. The measurement of the arterial pressure was effected on the tail vein of the rats by the indirect method. The animals were divided into groups (10 in each) and trained for two weeks with the view to ensure their adaptation to the unit for the measurement of the arterial pressure. The level of the arterial pressure prior to administration of the test preparations was measured three times: two days, one day and directly prior to administration of the test preparations. The preparation was administered in the form of a 2.5% aqueous solution, nifedipine--in the form of a 2.5% suspension in Twin-80 intraperitoneally. […]

[5] = background; cited from earlier work
[6] = background; cited from earlier work; remark: listed apart in the source
[7] = 4th day, grade/number of animals (6)
[8] = 8th day, grade/number of animals (6)
[9] = 12th day, grade/number of animals (6)
[10] = 19th day, grade/number of animals (5)
[11] = 1 mg/kg intraperitoneally, 30 minutes
[12] = 1 mg/kg intraperitoneally, 1 hour
[13] = 1 mg/kg intraperitoneally, 2 hours
[14] = 1 mg/kg intraperitoneally, 4 hours
[15] = 1 mg/kg intraperitoneally, 24 hours

For `COc1ccc(CCN(C)CCCC(C#N)(c2ccc(OC)c(OC)c2)C(C)C)cc1OC` (stereo not drawn) [Finoptin, reference compound], the “changes in cardiomyocytes” value ([1]; 4th day) was “Necrosis and eosinophilia, as well as contracture alterations of muscular cells are observed in a half of the studied animals”, the “changes in interstitial tissue” value ([1]; 4th day) was “edema is decreased, in a half of the animals a diffusive round-cell infiltration is observed, the formation of granulomae is similar to that of the animals of the control group” and the “changes in vessels” value ([1]; 4th day) was “injuries of the vascular system are less clearly pronounced as compared to adrenaline; non-uniform distribution of endothelium and infiltration of adventita of arteries with lymphoid cells are insignificant”. The “necrobiotic regions in the wall” value [1, 7] was 0/6, the “necrosis of more than 5 cells” value [1, 7] was 0/6 and the “wall necrosis (vessels)” value [1, 7] was 0/6. The “changes in cardiomyocytes” value ([1]; 8th day) was “granular-lumpy decomposition, eosinophilia and contructure type pathology are more pronounced than in the group of animals administered with the preparation according to the present invention, but less pronounced as compared to the control group (adrenaline)”, the “changes in interstitial tissue” value ([1]; 8th day) was “a more intensive growth of the scarring tissue is observed as compared to the group of animals administered with the preparation according to the present invention and an insignificant decrease as compared to the control group (adrenaline)” and the diffusive round-cell infiltration [1, 8] was 0/6. The “edema (interstitial tissue)” value [1, 8] was 0/6, the “necrobiotic regions in the wall” value [1, 8] was 0/6 and the “necrosis of more than 5 cells” value [1, 8] was 0/6. The “nuclei (pyknosis)” value [1, 8] was 0/6, the “plethora of the vessels” value [1, 8] was 0/6 and the “wall necrosis (vessels)” value [1, 8] was 0/6. For the same molecule, the “changes in cardiomyocytes” value ([1]; 12th day) was “Eosinophilia is retained and the contructure type changes are more clearly pronounced than in the group administered with the preparation according to the present invention”, the “changes in interstitial tissue” value ([1]; 12th day) was “an intensive formation of the scarring tissue occurs more noticeably than in the group of animals administered with the preparation according to the present invention” and the “changes in vessels” value ([1]; 12th day) was “certain changes are observed on the part of endothelial cells (swelling)”. The “Nuclei (pykhnosis)” value [1, 9] was 0/6, the diffusive round-cell infiltration [1, 9] was 0/6 and the “edema (interstitial tissue)” value [1, 9] was 0/6. For the same molecule, the “infiltration of the adventitia with lymphoid cells” value [1, 9] was 0/5, the “necrobiotic regions with changes in the vessel wall” value [1, 9] was 0/6 and the “necrosis of more than 5 cells” value [1, 9] was 0/6. For the same molecule, the “plethora of the vessels” value [1, 9] was 0/6, the “wall necrosis (vessels)” value [1, 9] was 0/6 and the “changes in cardiomyocytes” value ([1]; 19th day) was “By the 19th day these changes are getting less noticeable; also recorded: In half of the animals a moderately pronounced granular-lumpy decomposition is retained along with eosinophilia, cell necroses and contructure type changes”. The “changes in vessels” value ([1]; 19th day) was “no changes are detected on the part of the coronary vessels”, the “infiltration of the adventitia with lymphoid cells” value [1, 10] was 0/5 and the “necrobiotic regions with changes in the vessel wall” value [1, 10] was 0/5. For the same molecule, the “necrosis of more than 5 cells” value [1, 10] was 0/5, the “nuclei (pyknosis)” value [1, 10] was 0/5 and the “plethora of the vessels” value [1, 10] was 0/5. The Percentage of survival [2] was 50% and the “Number of survived animals after 19 days” value [2] was 6.

With `COC(=O)C1=C(C)NC(C)=C(C(=O)OC)C1c1ccccc1[N+](=O)[O-]` [Nifedipine, reference compound] the “Variation of arterial pressure, diastolic” value (“Variation … diastolic” below) ([3]; 30 minutes) was -14 % of the initial, the “Variation of arterial pressure, systolic” value ([3]; 30 minutes) was -10 % of the initial and the “Variation … diastolic” value ([3]; 1 hour) was -18 % of the initial. The “Variation of arterial pressure, systolic” value ([3]; 1 hour) was -14 % of the initial, the “Variation … diastolic” value ([3]; 2 hours) was -16 % of the initial and the “Variation of arterial pressure, systolic” value ([3]; 2 hours) was -10 % of the initial. For the same molecule, the “Variation … diastolic” value ([3]; 4 hours) was -20 % of the initial, the “Variation of arterial pressure, systolic” value ([3]; 4 hours) was -18 % of the initial and the “Variation … diastolic” value ([3]; 24 hours) was 0 % of the initial. The “Variation of arterial pressure, systolic” value ([3]; 24 hours) was 0 % of the initial, the “Variation … diastolic” value [4, 11] was -8 % of the initial and the “Variation of arterial pressure, systolic” value [4, 11] was -4 % of the initial. For the same molecule, the “lowering of diastolic pressure” value [4, 11] was 7.6%, the “lowering of systolic pressure” value [4, 11] was 4.3% and the “Variation … diastolic” value [4, 12] was -14 % of the initial. The “Variation of arterial pressure, systolic” value [4, 12] was -11 % of the initial, the “Variation … diastolic” value [4, 13] was -21 % of the initial and the “Variation of arterial pressure, systolic” value [4, 13] was -8 % of the initial. The “Variation … diastolic” value [4, 14] was -31 % of the initial, the “Variation of arterial pressure, systolic” value [4, 14] was -11 % of the initial and the “Variation … diastolic” value [4, 15] was 0 % of the initial. The “Variation of arterial pressure, systolic” value [4, 15] was 0 % of the initial, the “effect upon expiration of 8 hours” value ([4]; 8 hours) was “substantially discontinued” and the duration of effect [5] was no more than 8 h.

With `CC(C)NCC(O)COc1cccc2ccccc12` (stereo not drawn) [Obzidan] the Percentage of survival [2] was 50% and the “Number of survived animals after 19 days” value [2] was 6.

In the case of `CC(C)NCC(O)COc1cccc2ccccc12` (stereo not drawn) [inderal], the inotropic effect [6] is listed as “negative inotropic effect”.

For `C=CCOc1ccccc1OCC(O)CNC(C)C` (stereo not drawn) [oxyprenolol], the inotropic effect [6] is given as “negative inotropic effect”.
